What was measured:
IKs (KCNQ1 + KCNE1) = IKs (KCNQ1 + KCNE1) (Homo sapiens, UniProt P51787); assay: IKs co-expressed with CiVSP (PIP2 depletion), two-electrode voltage clamp in Xenopus oocytes; assay type: cell-based; settings: 100 µM chromanol 293B, bath application after 10 µM CP1
Description: We co-expressed KCNQ1 with the voltage-dependent lipid phosphatase CiVSP[44] in Xenopus oocytes and recorded KCNQ1 currents using two-electrode voltage clamp with consecutive depolarizing voltage pulses. […] To more directly test CP1 effects, we applied CP1 to the intracellular side of the inside-out membrane patch that expressed IKs channels.

KCNQ2/KCNQ3 channel = system: KCNQ2/KCNQ3 channel; parameters: method as in PMID 22303005; settings: cited from earlier work

Row | Compound | effect on CP1-rescued IKs currents (IKs (KCNQ1 + KCNE1)) | effect on channel activity (KCNQ2/KCNQ3 channel)
1 | CCS(=O)(=O)N(C)[C@H]1c2cc(C#N)ccc2OC(C)(C)[C@@H]1O (racemic) [Chromanol 293B, reference compound] | inhibited | –
2 | O=P(O)(O)O[C@@H]1[C@H](O)[C@H](O)[C@@H](OP(=O)(O)O)[C@H](OP(=O)(O)O)[C@H]1O [I(1,4,5)P3] | – | no effect on channel activity
3 | O=P(O)(O)O[C@@H]1[C@@H](O)[C@H](O)[C@H](O)[C@H](O)[C@H]1OP(=O)(O)O [I(4,5)P2] | – | no effect on channel activity

From paper PMC7367283, “A PIP2 substitute mediates voltage sensor-pore coupling in KCNQ activation” (Communications Biology, 2020)
